Test results: paper PMC9646836, “Tetrahydroquinolinone derivatives exert antiproliferative effect on lung cancer cells through apoptosis induction” (Scientific Reports, 2022)

How the values were obtained:
HEK293 = experiment: MTT cell viability assay, HEK293 normal kidney cells; format: cell-based, human; conditions: for IC50: MTT, 72 h, normal kidney cells, mean ± SD, n = 3
Method: (§1) All new tetrahydroquinoline derivatives were assessed for cytotoxicity on a broad panel of cancer and normal cell lines, using the MTT assay. The half-inhibitory growth inhibitory concentration (IC50) values of each compound were calculated after 72 h of treatment and presented in Table 1. […] In this assay, the IC50 value of 5-FU and ETP was recorded as a positive control.
(§2) Non-small cell lung cancer cells A549 (CCL-185), breast cancer cells MCF-7 ([…]), hepatocarcinoma cells HepG2 ([…]), normal kidney cells HEK293 (CRL-1573), and osteosarcoma cells U-2 OS (HTB-96) were obtained from the American Type Culture Collection. HCT-116 cell line was kindly provided by prof. Bert Vogelstein (Johns Hopkins University, Howard Hughes Medical Institute, USA). The obtained A549 and MCF-7 cells were cultured in RPMI-1640 medium, HepG2 cells in Minimum Essential Medium Eagle medium, HEK-293 cells in Dulbecco’s Modified Eagle’s medium, and U-2 OS and HCT-116 cells in McCoy’s […] medium. All culture media were supplemented with 10% fetal bovine serum, 2 mM L-glutamine, and antibiotics (penicillin 62.6 µg/ml and streptomycin 40 µg/ml; Sigma-Aldrich). Both cancer and normal cells were cultured at 37 °C under a humidified atmosphere with 5% or 10% CO2 and routinely screened for Mycoplasma contamination. All materials and reagents were obtained from Corning unless stated otherwise.
(§3) The cytotoxic effect of the synthesized compounds was assessed by the MTT (4,5-dimethylthiazol-2-yl-2,5-diphenyltetrazoliumbromide; Sigma-Aldrich) assay. Briefly, the cells were seeded into 96-well transparent flat-bottom plates and allowed to attach overnight. On the next day, the cells were treated with compounds in the range of 0–50 µM for 72 h. Dimethyl sulfoxide (DMSO; Merck) and 5-fluorouracil (5-FU; Sigma-Aldrich) were used as a reference. After exposure to the compounds, 20 μl of the MTT solution at a concentration of 4 mg/ml was added to each well, and the plates were incubated again for 2–3 h at 37 °C. Next, the media in the wells was replaced with 100 μl DMSO to solubilize the formazan crystals. The absorbance was measured at 540 nm using an ASYS UVM340 microplate reader (Biochrom Ltd.). The IC50 value of the compounds was calculated using GraphPad Prism 9 software, based on the curves plotted with survival as a function of dose, averaged from three independent experiments.

MCF-7 = experiment: MTT cell viability assay, MCF-7; format: cell-based, human; conditions: mean ± SD, n = 3
Method: as §1, §2, §3

HepG2 = experiment: MTT cell viability assay, HepG2; format: cell-based; conditions: mean ± SD, n = 3
Method: as §1, §2, §3

Hela = experiment: MTT cell viability assay, Hela; format: cell-based; conditions: 72 h, mean ± SD, n = 3
Method: as §1, §3

HCT-116 = experiment: MTT cell viability assay, HCT-116; format: cell-based, human; conditions: mean ± SD, n = 3
Method: as §1, §2, §3

A549 = experiment: MTT cell viability assay, A549; format: cell-based, human; conditions: mean ± SD, n = 3
Method: as §1, §2, §3

[1] = tested on: tested cell lines (HCT-116, A549, MCF-7, HepG2, Hela, HEK293); experiment: MTT assay, broad panel of cancer and normal cell lines; format: cell-based; conditions: range of 0–50 µM, 72 h
Method: as §1, §3

IC50 (MCF-7; Homo sapiens, MCF7, 72 h) [µM]	IC50 (HepG2; Homo sapiens, HepG2, 72 h) [µM]	IC50 (Hela; Homo sapiens, HeLa) [µM]	IC50 (HCT-116; Homo sapiens, HCT-116, 72 h) [µM]	IC50 (A549; Homo sapiens, A549, 72 h) [µM]	IC50 (HCT-116; 72 h) [µM]	IC50 (MCF-7; 72 h) [µM]	IC50 (HepG2; 72 h) [µM]	IC50 (A549; 72 h) [µM]	IC50 (Hela) [µM]	Compound	IC50 (HEK293; Homo sapiens, HEK293) [µM]	suppressive effect on human normal HEK293 kidney cells (HEK293; tested concentrations, compared to A549 and HCT-116)	IC50 (HEK293) [µM]	effect on the tested cell lines [1]
8.41 ± 0.98	13.1 ± 0.32	11.1 ± 1.53	5.78 ± 0.38	–	–	–	–	–	–	O=c1[nH]cc(F)c(=O)[nH]1 [Compound 5-FU, 5-fluorouracil, reference compound]	16.8 ± 0.34	–	–	–
> 50	> 50	50	~13	40.2 ± 0.94	15.6 ± 1.29	–	–	–	–	COc1nc2c(c(-c3ccccc3)c1Cc1cccc3ccccc13)CCCC2 [Compound 6, 2-methoxy-3-(1-naphthylmethyl)-4-phenyl-5,6,7,8-tetrahydroquinoline]	> 50	almost no suppressive effect	–	–
–	–	–	–	–	0.39 ± 0.01	0.83 ± 0.15	5.01 ± 0.22	0.54 ± 0.21	3.4 ± 0.51	COc1cc([C@@H]2c3cc4c(cc3[C@@H](O[C@@H]3O[C@@H]5CO[C@@H](C)O[C@H]5[C@H](O)[C@H]3O)[C@H]3COC(=O)[C@H]23)OCO4)cc(OC)c1O [ETP, reference compound]	–	–	1.91 ± 0.97	–
> 50	> 50	> 50	> 50	> 50	–	–	–	–	–	O=c1[nH]c2c(c(-c3ccccc3)c1Cc1ccc(C(F)(F)F)cc1)CCCC2 [Compound 4e, 4-phenyl-3-[[4-(trifluoromethyl)phenyl]methyl]-5,6,7,8-tetrahydro-1H-quinolin-2-one]	> 50	–	–	did not have any effect
> 50	> 50	> 50	~13	> 50	13.1 ± 0.96	–	–	–	–	Clc1nc2c(c(-c3ccccc3)c1Cc1cccc3ccccc13)CCCC2 [Compound 5, 2-chloro-3-(1-naphthylmethyl)-4-phenyl-5,6,7,8-tetrahydroquinoline]	> 50	–	–	–
> 50	> 50	> 50	> 50	> 50	–	–	–	–	–	O=c1[nH]c2c(c(-c3ccccc3)c1Cc1cccc(-c3ccccc3)c1)CCCC2 [Compound 4d, 4-phenyl-3-[(3-phenylphenyl)methyl]-5,6,7,8-tetrahydro-1H-quinolin-2-one]	> 50	–	–	did not have any effect
> 50	> 50	> 50	> 50	> 50	–	–	–	–	–	O=c1[nH]c2c(c(-c3ccccc3)c1Cc1ccc(-c3ccccc3)cc1)CCCC2 [Compound 4c, 4-phenyl-3-[(4-phenylphenyl)methyl]-5,6,7,8-tetrahydro-1H-quinolin-2-one]	> 50	–	–	did not have any effect
> 50	> 50	> 50	> 50	> 50	–	–	–	–	–	O=c1[nH]c2c(c(-c3ccccc3)c1Cc1ccc3ccccc3c1)CCCC2 [Compound 4b, 3-(2-naphthylmethyl)-4-phenyl-5,6,7,8-tetrahydro-1H-quinolin-2-one]	> 50	–	–	did not have any effect
